Reference: US20220218699A1, “New Pharmaceutical Formulation” (Hoffmann-La Roche Inc., priority 2019, published 2022)

Assays:
[1] = Single-dose food effect study in dogs; type: in vivo; settings: formulation that did not comprise at least one acidulant
From the text: Such food effects can cause difficulty during human testing of drugs as the fed or fasted condition of the patient can cause exposure or bioavailability of drugs to vary widely.

TrkB = TrkB (Homo sapiens, UniProt Q16620); settings: cited from earlier work
Sequence of TrkB (Q16620 32-822): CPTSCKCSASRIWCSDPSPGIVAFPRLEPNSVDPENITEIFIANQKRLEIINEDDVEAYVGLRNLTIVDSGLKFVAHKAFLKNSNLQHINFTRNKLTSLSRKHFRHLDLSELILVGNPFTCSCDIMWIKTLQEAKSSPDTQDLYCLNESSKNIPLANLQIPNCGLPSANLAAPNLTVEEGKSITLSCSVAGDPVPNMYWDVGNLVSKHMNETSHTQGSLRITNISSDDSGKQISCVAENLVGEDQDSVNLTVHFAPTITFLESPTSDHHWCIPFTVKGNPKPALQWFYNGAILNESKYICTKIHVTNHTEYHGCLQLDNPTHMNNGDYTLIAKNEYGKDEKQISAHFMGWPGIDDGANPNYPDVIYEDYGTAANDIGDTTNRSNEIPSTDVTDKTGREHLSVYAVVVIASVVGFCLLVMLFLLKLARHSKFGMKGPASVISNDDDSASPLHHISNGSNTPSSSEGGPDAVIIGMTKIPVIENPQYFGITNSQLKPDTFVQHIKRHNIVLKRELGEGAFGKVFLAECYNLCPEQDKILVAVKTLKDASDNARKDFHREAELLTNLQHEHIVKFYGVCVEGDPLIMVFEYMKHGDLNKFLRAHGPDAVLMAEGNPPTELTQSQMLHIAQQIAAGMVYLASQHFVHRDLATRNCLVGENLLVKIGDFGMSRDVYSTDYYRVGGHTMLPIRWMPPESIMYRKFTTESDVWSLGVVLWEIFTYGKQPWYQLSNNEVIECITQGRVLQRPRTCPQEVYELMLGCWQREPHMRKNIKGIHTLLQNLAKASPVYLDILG

TrkC = TrkC (Homo sapiens, UniProt Q16288); settings: cited from earlier work
Sequence of TrkC (Q16288 32-839): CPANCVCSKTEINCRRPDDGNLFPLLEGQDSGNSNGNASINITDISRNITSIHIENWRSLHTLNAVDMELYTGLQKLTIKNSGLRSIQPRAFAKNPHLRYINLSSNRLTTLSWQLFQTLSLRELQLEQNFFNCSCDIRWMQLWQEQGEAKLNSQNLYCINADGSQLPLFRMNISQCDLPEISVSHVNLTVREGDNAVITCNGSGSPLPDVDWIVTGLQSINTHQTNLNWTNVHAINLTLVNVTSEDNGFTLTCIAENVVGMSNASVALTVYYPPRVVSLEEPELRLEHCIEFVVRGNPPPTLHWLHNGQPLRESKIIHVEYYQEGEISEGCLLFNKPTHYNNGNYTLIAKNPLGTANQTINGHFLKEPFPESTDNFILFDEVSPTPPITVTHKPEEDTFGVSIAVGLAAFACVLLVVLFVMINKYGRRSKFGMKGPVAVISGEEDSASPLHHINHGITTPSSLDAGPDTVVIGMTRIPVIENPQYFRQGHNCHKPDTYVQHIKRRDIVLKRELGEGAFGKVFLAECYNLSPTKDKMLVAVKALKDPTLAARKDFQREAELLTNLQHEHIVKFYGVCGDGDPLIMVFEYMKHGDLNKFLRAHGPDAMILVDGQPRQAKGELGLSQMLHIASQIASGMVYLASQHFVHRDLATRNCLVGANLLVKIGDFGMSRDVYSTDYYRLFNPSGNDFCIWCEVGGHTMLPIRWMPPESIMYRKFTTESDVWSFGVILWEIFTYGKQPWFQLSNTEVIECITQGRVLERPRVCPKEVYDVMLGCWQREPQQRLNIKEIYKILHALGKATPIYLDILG

[2] = target: anaplastic lymphoma kinase (ALK) (Homo sapiens, UniProt Q9UM73); settings: cited from earlier work
Sequence of anaplastic lymphoma kinase (ALK) (Q9UM73 19-1620): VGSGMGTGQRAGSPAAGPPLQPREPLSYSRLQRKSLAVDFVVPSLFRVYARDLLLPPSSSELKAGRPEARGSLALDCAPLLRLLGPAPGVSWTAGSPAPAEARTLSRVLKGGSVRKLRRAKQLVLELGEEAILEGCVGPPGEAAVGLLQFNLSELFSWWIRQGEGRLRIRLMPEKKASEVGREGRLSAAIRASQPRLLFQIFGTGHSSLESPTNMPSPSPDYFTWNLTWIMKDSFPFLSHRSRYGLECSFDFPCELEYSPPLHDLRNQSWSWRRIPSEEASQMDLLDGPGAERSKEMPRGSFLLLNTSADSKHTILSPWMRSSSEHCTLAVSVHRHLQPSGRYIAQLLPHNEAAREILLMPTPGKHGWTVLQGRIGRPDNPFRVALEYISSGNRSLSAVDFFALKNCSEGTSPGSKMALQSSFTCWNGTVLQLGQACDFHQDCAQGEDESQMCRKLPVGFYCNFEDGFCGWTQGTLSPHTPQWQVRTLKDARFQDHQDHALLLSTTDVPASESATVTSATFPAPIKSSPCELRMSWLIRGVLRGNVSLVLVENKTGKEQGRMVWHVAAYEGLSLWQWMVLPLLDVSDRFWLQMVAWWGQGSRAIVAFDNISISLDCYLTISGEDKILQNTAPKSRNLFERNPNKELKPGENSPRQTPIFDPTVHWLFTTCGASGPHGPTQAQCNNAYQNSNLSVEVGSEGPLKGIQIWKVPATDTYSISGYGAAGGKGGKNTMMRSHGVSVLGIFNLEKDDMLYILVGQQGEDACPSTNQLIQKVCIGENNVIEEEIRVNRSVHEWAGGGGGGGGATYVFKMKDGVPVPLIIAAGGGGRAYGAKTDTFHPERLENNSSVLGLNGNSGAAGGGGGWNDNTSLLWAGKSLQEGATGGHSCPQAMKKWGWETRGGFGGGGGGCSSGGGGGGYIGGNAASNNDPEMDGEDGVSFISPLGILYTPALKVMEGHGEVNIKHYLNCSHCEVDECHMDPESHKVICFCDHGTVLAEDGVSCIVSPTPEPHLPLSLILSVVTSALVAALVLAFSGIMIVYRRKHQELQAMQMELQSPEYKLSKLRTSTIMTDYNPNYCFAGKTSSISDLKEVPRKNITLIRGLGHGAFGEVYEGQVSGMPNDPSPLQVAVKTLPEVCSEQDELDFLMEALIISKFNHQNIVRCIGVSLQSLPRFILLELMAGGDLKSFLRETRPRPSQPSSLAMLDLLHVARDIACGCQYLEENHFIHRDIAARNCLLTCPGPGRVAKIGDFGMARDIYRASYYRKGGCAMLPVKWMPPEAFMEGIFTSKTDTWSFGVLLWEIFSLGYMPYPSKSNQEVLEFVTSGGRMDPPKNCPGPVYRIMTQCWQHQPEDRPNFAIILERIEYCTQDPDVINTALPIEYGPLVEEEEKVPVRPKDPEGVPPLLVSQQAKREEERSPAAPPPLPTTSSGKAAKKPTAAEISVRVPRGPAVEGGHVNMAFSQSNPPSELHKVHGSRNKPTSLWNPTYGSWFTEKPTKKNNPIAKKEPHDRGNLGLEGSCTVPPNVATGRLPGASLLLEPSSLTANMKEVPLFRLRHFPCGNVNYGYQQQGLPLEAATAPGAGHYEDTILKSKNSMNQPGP

- exposure levels under fed conditions compared to fasting conditions [1]: approximately 2 fold
Compound: CN1CCN(c2ccc(C(=O)Nc3n[nH]c4ccc(Cc5cc(F)cc(F)c5)cc34)c(NC3CCOCC3)c2)CC1 [N-[5-(3,5-difluorobenzyl)-1H-indazol-3-yl]-4-(4-methyl-piperazin-1-yl)-2-(tetrahydro-pyran-4-ylamino)-benzamide]
- inhibition of tyrosine kinase TrkB (TrkB): potent inhibitor
- inhibition of tyrosine kinase TrkC (TrkC): potent inhibitor
- inhibition of tyrosine kinase ALK [2]: potent inhibitor
